Earlier results on 6 molecules are cited in patent US20110028420A1, “Regression of Established Atherosclerotic Plaques, and Treating Sudden-Onset Asthma Attacks, using PARP Inhibitors” (priority 2008, published 2011).

The subject of one data set is rat. Particulars: cited from earlier work; for Anti-inflammatory effects in gut inflammation: post-injury administration; for Accumulation of poly (ADP-ribose) in ileum and colon: splanchnic artery occlusion-shocked rats, dinitrobenzene sulfonic acid-treated rats.
A further data set addresses T1, PARP1 (Mus musculus, UniProt P11103).
T1 construct: host or cells: cortical neuron cultures
As to conditions: cortical neuron cultures; cited from earlier work.

The subject of the next data set is mice. Particulars: chronic administration; cited from earlier work.
The subject of another data set is PARP-2. As to conditions: cited from earlier work.

T1 sequence (P11103 2-1013 limits assumed): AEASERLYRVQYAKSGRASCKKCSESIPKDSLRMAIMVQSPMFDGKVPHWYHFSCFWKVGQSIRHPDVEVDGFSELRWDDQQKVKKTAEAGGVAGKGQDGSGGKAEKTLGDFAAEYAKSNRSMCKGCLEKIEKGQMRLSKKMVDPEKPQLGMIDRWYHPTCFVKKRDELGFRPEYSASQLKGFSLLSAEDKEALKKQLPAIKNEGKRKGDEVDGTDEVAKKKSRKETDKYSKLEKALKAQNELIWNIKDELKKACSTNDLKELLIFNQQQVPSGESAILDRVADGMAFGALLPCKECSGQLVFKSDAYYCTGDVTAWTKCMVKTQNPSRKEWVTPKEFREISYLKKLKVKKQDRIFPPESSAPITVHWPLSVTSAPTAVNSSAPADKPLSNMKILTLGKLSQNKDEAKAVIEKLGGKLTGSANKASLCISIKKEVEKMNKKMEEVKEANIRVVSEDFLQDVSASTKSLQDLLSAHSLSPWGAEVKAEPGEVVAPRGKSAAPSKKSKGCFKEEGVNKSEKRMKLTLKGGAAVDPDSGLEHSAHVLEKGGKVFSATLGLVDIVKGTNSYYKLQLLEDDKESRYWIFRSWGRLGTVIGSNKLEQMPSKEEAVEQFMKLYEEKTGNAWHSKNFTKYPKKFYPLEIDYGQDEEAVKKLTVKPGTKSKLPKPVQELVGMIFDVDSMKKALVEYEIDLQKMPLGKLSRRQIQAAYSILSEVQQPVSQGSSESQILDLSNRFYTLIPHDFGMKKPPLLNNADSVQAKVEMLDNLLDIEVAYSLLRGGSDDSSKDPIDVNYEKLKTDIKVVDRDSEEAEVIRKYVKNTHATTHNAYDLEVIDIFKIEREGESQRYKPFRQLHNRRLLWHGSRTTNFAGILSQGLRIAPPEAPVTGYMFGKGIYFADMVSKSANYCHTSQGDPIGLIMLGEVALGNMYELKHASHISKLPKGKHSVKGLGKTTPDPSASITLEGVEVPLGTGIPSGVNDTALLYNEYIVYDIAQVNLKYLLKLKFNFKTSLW

With `CN1CCN(Cc2ccc3c(c2)-c2n[nH]c(=O)c4cccc(c24)O3)CC1` [GPI 15427, 10-(4-methyl-piperazin-1-ylmethyl)-2H-7-oxa-1,2-diaza-benzo[de]anthracen-3-one], in the data set with rat, the “Anti-inflammatory effects in gut inflammation” value is recorded as “potent anti-inflammatory effects”; the “Accumulation of poly (ADP-ribose) in ileum and colon” value is given as “diminished”.
Consider `CN(C)[C@@H]1C(O)=C(C(N)=O)C(=O)[C@@]2(O)C(O)=C3C(=O)c4c(O)ccc(Cl)c4[C@@H](O)[C@H]3C[C@@H]12` [demeclocycline], for which, at PARP1, the “Rank order of potency of tetracycline derivatives” value is “minocycline>doxycycline>demeclocycline>chlortetracycline”.
`CN(C)CC(=O)Nc1ccc2[nH]c(=O)c3ccccc3c2c1` [PJ34]: in the data set with mice, the “Plaque formation in atherosclerosis” value is reported as “markedly decreased”.
Regarding `O=C1NCCc2c(OCCCCN3CCCCC3)cccc21` [3,4-dihydro-5-[4-(1-piperidinyl)butoxy]-1(2H)-isoquinolinone], the “Induced PARP1 activation” value on PARP1 is given as “inhibited”.
Consider `CN1CCN(c2ccc3[nH]c(=O)c4ccccc4c3n2)CC1` [GPI 16539, 2-(4-methyl-piperazin-1-yl)-5H-benzo[c][1,5]naphthyridin-6-one], for which, in the data set on rat, the “Anti-inflammatory effects in gut inflammation” value is reported as “potent anti-inflammatory effects”; the “Accumulation of poly (ADP-ribose) in ileum and colon” value is recorded as “diminished”.
Turning to `O=C(Oc1cccc2cnccc12)c1ccccc1` [5-benzoyloxyisoquinoline], the “Selectivity for the PARP-2 isotype over the PARP-1 isotype” value in the data set on PARP-2 is given as 60 fold.
